Here are results for one compound from patent US20140163456A1, “METHOD OF PRODUCING SUBSTANCES WITH SUPERSATURATED GAS, TRANSDERMAL DELIVERY DEVICE THEREOF, AND USES THEREOF” (INVISIDERM, LLC, priority 2011, published 2014).

The test system of assay [1] is individuals. Description: Measurement of blood flow: Skin Perfusion Pressure (SensiLase System) on right toe, capillary blood flow change. The class given is in vivo, human. How it is done: (§1) The treatment was administered by having an individual insert the left thumb into the open-ended delivery outlet of a device disclosed herein creating a seal. The digit will be “bathed” for five minutes with a vapor including supersaturated dissolved molecular carbon dioxide from a canister providing pure, medical-grade carbon dioxide. Nine individuals were examined.
Tissue perfusion in distal arteries was accessed using a SensiLase System (a FDA-cleared device) and measuring Skin Perfusion Pressure (SPP) and Pulse Volume Recording (PVR). SPP is a pressure measurement in mmHg that assess local blood perfusion in capillaries using a laser Doppler to measure reactive hyperemia, which reflects microcirculation for distal arterial blood flow. PVR is a measurement of plethysmography to assess changes in arterial blood volume. A change in capillary blood flow (CBF) is calculated by determining the change in SPP values over time. For this study, the CBF values of all post-treatment measurements were calculated by dividing the post-treatment SPP value by the pre-treatment SPP value. A measurement of SPP was performed on the individual's right toe at six time points 1) 5 minutes before treatment (pre-treatment); 2) 5 minutes post-treatment; 3) 30 minutes post-treatment; 4) 60 minutes post-treatment; 5) 120 minutes post-treatment; and 6) 240 minutes post-treatment.

In assay [2] the test system is individuals. Description: Measurement of brachial diastolic and systolic blood pressure on right upper arm. The assay is classed as in vivo, human. How it is done: as §1
To conduct this study, individuals from the study described in Example 1 had there blood pressure taken. A measurement of both brachial diastolic blood pressure and systolic blood pressure was performed on the individual's right upper arm at six time points 1) 5 minutes before treatment (pre-treatment); 2) 5 minutes post-treatment; 3) 30 minutes post-treatment; 4) 60 minutes post-treatment; 5) 120 minutes post-treatment; and 6) 240 minutes post-treatment.

Setting [3] is: nine individuals, 5 to 240 min post-treatment.
Where [4] appears, read: over the course of the entire 240 minute study.

With `O=C=O` [molecular carbon dioxide, carbon dioxide], the blood flow entry in the assay on individuals [1] (setting [3]) was “increases blood flow in all individuals examined at some point during the time period measured”. The “sustained increases in capillary blood flow” value with individuals [1] (setting [4]) is “six of the nine patients showed sustained increases in capillary blood flow”. Further, in the assay on individuals [2] (setting [3]), the blood pressure result is on record as “decreased blood pressure in all individuals examined at some point during the time period measured”. Moreover, the “diastolic and systolic blood pressure” value in the assay with individuals [2] (setting [4]) was “Seven of the nine individuals studied showed decreased diastolic and systolic blood pressure”.
